In the assay the test system is calcium ionophore-induced LTB4 biosynthesis. The experiment in a line: Inhibition of calcium ionophore (A23187)-induced LTB4 biosynthesis in human whole blood. The following applies: human heparinized whole blood; 15 min preincubation at 37° C.; A23187 8.3 μM, 30 minutes; LTB4 by radioimmunoassay; read-out: IC50, inhibition of leukotriene biosynthesis in human whole blood. The class given is cell-based. The procedure: Inhibition of leukotriene biosynthesis was evaluated in an assay, involving calcium ionophore-induced LTB4 biosynthesis expressed human whole blood. Human heparinized whole blood was preincubated with test compounds or vehicle for 15 rain at 37° C. followed by calcium ionophore A23187 challenge (final concentration of 8.3 μM) and the reaction terminated after 30 minutes by adding two volumes of methanol containing prostaglandin B2 as an internal recovery standard. The methanol extract was analyzed for LTB4 using a commercially available radioimmunoassay.

pIC50: −log10 of the molar value.

In the case of `C[C@H](/C=C\c1ccc(Cc2ccc(F)cc2)s1)N(O)C(N)=O` [Example 1, Z-(R)-N-[3-(5-(4-Fluorophenylmethyl)-thien-2-yl)-1-methyl-2-propenyl]-N-hydroxyurea], the pIC50 (as a rule, the negative decadic logarithm of the IC50, by convention in mol/L) is 7.40.

In the case of `C[C@H](/C=C/c1ccc(Cc2ccc(F)cc2)s1)N(O)C(N)=O` [Example 2, E-(R)-N-[3-(5-(4-Fluorophenylmethyl)-thien-2-yl)-1-methyl-2-propenyl]-N-hydroxyurea], the negative-log IC50 (pIC50) was 6.74.

Source of the values: patent US5506261A, “Substituted aryl- and heteroarylalkenyl-N-hydroxyurea inhibitors of leukotriene biosynthesis” (Abbott Laboratories, priority 1994, dated 1996).
